According to US11661404B2, “Prodrug compounds activated by AKR1C3 and their use for treating hyperproliferative disorders” (priority 2018, dated 2023):
pIC50: −log10 of the molar value. Read-outs that look alike come from different tables or passages of the source.

Key:
AKR1C3 mixed MCLs = conditions: cited from earlier work
[1] = tested on: H460 lung cancer xenografts; test: Tumour growth delay, H460 xenografts; type: in vivo, NIH-III mice; conditions: q4dx3 intraperitoneal; for tolerability of schedule: 237, 178 and 178 μmol/kg
Text: Specific pathogen-free female homozygous nude NIH-III (NIH-Lyst^bg Foxn1^nu Btk^xid) mice were bred by the Vernon Jansen Unit (shared vivarium, University of Auckland). Animals were housed in Techniplast microisolator cages and provided with a standard twelve hour day-night light schedule. Animals received standard rodent diet (Harlan Teklad diet 2018i) and water ad libitum. All animal studies were approved by the University of Auckland Animal Ethics Committee.
Animals weighed 18-25 g at the time of tumour inoculation. Tumours were grown subcutaneously on the right flank of mice by inoculating cells grown in tissue culture (1×10^7 cells in 100 uL serum free α-MEM). Tumour sizes were monitored three times weekly using electronic callipers and treatments were initiated once tumour diameter reached ≥7 mm.
Tumour bearing mice were randomised into the appropriate treatment groups and tumour size and body weight recorded. Test compounds were formulated on the day of the experiment and kept in foil-wrapped tubes out of direct fluorescent light. If recruitment of animals occurred over multiple days, the drug stocks were aliquoted into tubes and frozen once at −80° C. until required. Mice were treated with a single (or q4dx3 or q4dx4 or q4dx6) dose of a compound of the invention by intraperitoneal injection and thereafter tumour size and body weight was monitored every second day. Tumour volume was calculated as […] (l×w×w)/6, where l is the major axis and w is the perpendicular minor axis. Animals were culled when they had reached the appropriate survival endpoint or when body weight loss exceeded 20% of the pre-treatment value.

[2] = tested on: wild-type HCT116 colon cancer cells; test: Anti-proliferative IC50 under oxic and anoxic conditions; type: cell-based, human; conditions: for pIC50: Homo sapiens, HCT-116; for Hypoxic Cytotoxicity Ratio (HCR): oxic vs anoxic IC50, HCT116-WT
Text: PR-104A was initially designed and optimised as a hypoxia-selective cytotoxin (Patterson et al, Clinical Cancer Research, 2007, 13, 3922-3932). In the context of an AKR1C3-activated prodrug, this route of activation is considered off-mechanism and may potentially be undesirable, leading to off-target toxicities in a subject. Preferred compounds of the invention have been determined to be substantially resistant to hypoxia-dependent activation and cytotoxicity in wild-type HCT116 colon cancer cells. HCT116 cells were treated with compounds of the invention under either oxic or anoxic conditions and then their degree of anti-proliferative activity determined.
Selected compounds were evaluated for cytotoxic potential (IC50) under anoxic conditions. The same procedures as described above for Examples 9-11 were carried out in a Bactron anoxic chamber (Sheldon Manufacturing Inc) with internal 37° C. incubators where palladium catalyst scrubbed gas (90% N2, 5% H2, 5% CO2) ensured severe anoxia (<0.001% O2) in the whole chamber. All materials required (including cells) were taken into the chamber through two cycles of vacuum and gassing with 100% N2, followed by a single cycle with 5% CO2 and 5% hydrogen in nitrogen. All experimental materials were placed in the anoxic chamber at least 3 days prior to the day required for the experiment in order to remove any traces of residual O2. The medium used for the 96-well plates in the anoxic chamber consisted of α-MEM+10% (v/v) FBS+1% (v/v) additives (1 M β-D-Glucose and 20 mM 2′-Deoxycytidine).

[3] = anoxic (<0.001% O2), read-out: HCT116-WT Anti-proliferative IC50 Anoxic
[4] = read-out: HCT116-WT Anti-proliferative IC50 Oxic

Row | SMILES | BEE reported in AKR1C3 mixed MCLs (AKR1C3 mixed MCLs; Silva, MSc Thesis) [%] | tolerability of schedule [1] | pIC50 [2, 3] | pIC50 [2, 4] | bystander effect (literature) (AKR1C3 mixed MCLs; Foehrenbacher et al, 2013) | Hypoxic Cytotoxicity Ratio (HCR) [2] | anti-tumour efficacy (mean tumour volume) ([1]; SN34454 237, 602 178, 641 178 μmol/kg, FIG. 2)
1 | CN1CCN(C(=O)c2cc([N+](=O)[O-])ccc2N(CCBr)CCBr)CC1 [SN34118, reference compound] | 52.7 |  |  |  |  |  | 
2 | CN1CCN(S(=O)(=O)c2cc([N+](=O)[O-])ccc2N(CCBr)CCOS(C)(=O)=O)CC1 [Compound 602, 2-((2-bromoethyl)(2-((4-methylpiperazin-1-yl)sulfonyl)-4-nitrophenyl)amino)ethyl methanesulfonate] |  | well-tolerated | 5.45 | 5.37 |  |  | 
3 | CS(=O)(=O)OCCN(CCBr)c1c(C(=O)NCCO)cc([N+](=O)[O-])cc1[N+](=O)[O-] [PR-104A, 2-((2-bromoethyl)(2-((2-hydroxyethyl)-carbamoyl)-4,6-dinitrophenyl)amino)ethyl methanesulfonate, reference compound] |  |  | 5.55 | 4.25 | substantial bystander effect | 20 | 
4 | CN1CCN(S(=O)(=O)c2cc([N+](=O)[O-])ccc2N(CCOS(C)(=O)=O)CCOS(C)(=O)=O)CC1 [Compound 641, ((2-((4-methylpiperazin-1-yl)sulfonyl)-4-nitrophenyl)azanediyl)bis(ethane-2,1-diyl) dimethanesulfonate] |  | well-tolerated | 5.60 | 5.23 |  | 2 | 
5 | CN1CCN(C(=O)c2cc([N+](=O)[O-])ccc2N(CCBr)CCOS(C)(=O)=O)CC1 [SN34454, reference compound] |  | well-tolerated |  |  |  |  | anti-tumour efficacy
